The source of these data is patent US8066972B2, “Altering memory by affecting staufen function” (Helicon Therapeutics, Inc., priority 2002, dated 2011).

The test system of the assay is C57B1/6 male mice. Nature of the assay: Contextual fear conditioning (weak versus strong training), 4-day contextual memory scored as freezing, after intra-hippocampal infusion. Format: in vivo, mouse. Also noted: effect on memory induced by strong training: dose or concentration left out as unconfirmed. The following applies: tested 4 days after training; for freezing responses: ANI 62.5 μg/2 μl per hippocampus immediately after training. As for the experimental part:
Ten to twelve week old C57B1/6 male mice (Taconic Laboratory, N.Y.) were used. Mice were housed in groups of four in standard mouse cages and kept in a 12:12 light-dark cycle and constant temperature (22° C.) in a humidity and ventilation-controlled animal house. With the exception of surgery, training and testing times, the mice had ad lib access to food and water. Animals were acclimatized to animal house environment for a week before surgery. On a day of surgery, mice were anesthetized with 20 mg/kg Avertin and implanted with a 26-gauge guide double cannula aimed at the dorsal hippocampus using a stereotaxic apparatus (Korf Instruments, Calif.; coordinates: P=1 mm; 5 mm to a depth 1-1.2 mm; Franklin and Paxinos, The Mouse Brain In Stereotaxis Coordinates, Academic Press, San Diego, Calif. (1997)). After the end of surgery, animals were individually maintained in a cage with ad lib access to food and water. Seven days after recovery from surgery, animals were trained for contextual fear conditioning.
The basic fear conditioning procedures and equipment remained as described (Bourtchuladze, R. et al., Cell, 79:59-68 (1994); and Bourtchouladze et al., Learn Mem., 5(4-5):365-374 (1998)). On the training day, the mouse was placed in the conditioning chamber (Med Associates) for 2 minutes before the onset of unconditioned stimulus (US) of 0.5 mA, two seconds shock. For weak training, US was repeated two times with a one minute inter-trial interval between shocks. For strong training, 5 USs were given. Training was automated and performed by computerized software package (Med Associates).
Thirty seconds after the end of the last trial, the mouse was returned to its home cage. The conditioning chamber was cleaned with 75% ethanol and then with water. Contextual memory was tested four days after training by scoring freezing responses. Freezing was assessed with a sampling method. That is, 2 second observations were taken every 5 seconds (Bourtchuladze, R. et al., Cell, 79:59-68 (1994); Bourtchouladze et al., Learn Mem., 5(4-5):365-374 (1998); and Frankland, P. W. et al., Behav. Neurosci., 112:863-874 (1998)). A mouse was detminined to be freezing when it adopted a motionless posture, refraining from all but respiratory movements.
For each training and drug-injecting procedure, an experimentally nave group of animals was used. The observations were made by an experimenter unaware of the experimental treatment of the mice. In each experiment, both training and testing were videotaped. Experiments were analyzed with an analysis of variance (ANOVA) and t-tests.
Anisomycin (ANI) (Sigma) was dissolved in 0.9% saline, and the pH was adjusted with 1 N HCl to 7.4. Control animals received injections of saline. Mice were injected in the hippocampus (62.5 μg/2 μl per hippocampus) immediately after training. Infusions were made through the guide cannula using a 33-gauge injection needle. The needle was connected via a polyethylene tube to a microsyringe fixed in the pump 11 (Harvard Instruments). The entire infusion procedure took 2 minutes and animals were freely moving during this time in the home cage. Experiments were replicated 2 times and for each training procedure, an experimentally nave group of animals was used (n=47 total).
Mouse antisense oligodeoxynucleotides (ODNs) directed against CREB mRNA (5′-T-s-g-s-g-s-T-C-A-T-T-g-T-T-A-C-C-g-s-g-s-T-s-g-3′) (SEQ ID NO:1) was used to disrupt hippocampal CREB protein levels. Control groups received infusions of ODN of the same base composition but in randomized order (scrambled CREB: 5′-g-s-T-s-C-s-T-g-T-A-g-T-C-g-A-T-C-T-A-T-s-g-s-g-s-T3′) (SEQ ID NO:2). ODNs were administered into the hippocampus (2 nmol/2 μl per hippocampus) as described above for ANI-infusion. CREB ODNs were infused 20 hours before training. Experiments were replicated 3 times and for each training procedure, an experimentally nave group of animals was used (n=54 total). […]

For the molecule `COc1ccc(C[C@H]2NC[C@H](O)[C@H]2OC(C)=O)cc1` [ANI, Anisomycin], the freezing responses was determined as 28.42±4.9% (strong training (5 USs)) and 17.1±4.3% (weak training (2 USs)). Also, the “effect on memory induced by weak training” value (ANI 62.5 mg/2 μl per hippocampus immediately after training, weak training, vs vehicle) is reported as “significantly impaired memory”. Besides, the “effect on memory induced by strong training” value (ANI per hippocampus immediately after training, strong training, vs vehicle) is on record as “significantly impaired memory”.
As for `COc1ccc(C2CNC(=O)C2)cc1OC1CCCC1` (centres unmarked) [Rolipram], the “effect on memory induced by weak training” value reads like this: (Rolipram 0.03 ng into hippocampus, weak training (2 trials)) “had no memory enhancing effect”; (Rolipram 3 ng into hippocampus, weak training (2 trials)) “produced memory enhancing effect”; (Rolipram 30 ng/1 μl per hippocampus immediately after training, 2 trials, vs vehicle) “significantly enhanced the amount of memory”. In addition, the “effect on maximal memory levels produced by strong training” value (Rolipram 30 ng/1 μl per hippocampus immediately after training, 5 trials, vs vehicle) is reported as “had no effect”.
